Values of other authors as cited in US6710179B2, “Compounds with analgesic effect” (AstraZeneca Canada Inc., priority 1996, dated 2004).

Legend:
[1] = non-peptidic δ antagonists; prior art statement
[2] = molecular target: δ receptor (Homo sapiens, UniProt P41143); conditions: non-peptidic δ antagonists; review Takemori and Portoghese 1992
Sequence of δ receptor (P41143 whole entry): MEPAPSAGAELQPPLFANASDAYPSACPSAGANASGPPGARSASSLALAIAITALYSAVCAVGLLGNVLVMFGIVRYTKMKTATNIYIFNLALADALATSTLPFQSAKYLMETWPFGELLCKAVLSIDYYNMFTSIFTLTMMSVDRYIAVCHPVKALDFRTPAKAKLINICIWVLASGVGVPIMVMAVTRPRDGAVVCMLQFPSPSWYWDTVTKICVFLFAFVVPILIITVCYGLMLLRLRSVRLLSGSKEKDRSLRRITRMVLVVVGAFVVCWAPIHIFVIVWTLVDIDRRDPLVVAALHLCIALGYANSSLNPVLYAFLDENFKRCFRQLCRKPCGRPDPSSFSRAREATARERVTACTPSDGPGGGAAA

For `Oc1ccc2c3c1O[C@H]1c4[nH]c5ccccc5c4C[C@@]4(O)[C@@H](C2)N(CC2CC2)CC[C@]314` [naltrindole], the analgesic activity [1] is listed as “no analgesic activity” and the “selectivity for the δ receptor vs. μ receptor binding” value [2] is listed as under 10 fold.
